# Experimental data from patent US7309713B2, “Use of the non-opiate analgesic drug flupirtine for the treatment of overactive bladder and associated diseases including urge incontinence, urinary flow problems as a result of prostate hyperplasia and irritable bowel syndrome” (priority 2005, dated 2007).
# “And” between values parts separate entries of the source, which are not always exact repeats. Identical values can stand only once. “Also recorded” adds a separate entry of the source. Counter-ions that a name gives are not always drawn.
# How the values were obtained:
# [1] = test system: analgesic effect in rodents; details: p.o.; cited from earlier work
# [2] = test system: mean arterial blood pressure; assay: mean arterial blood pressure recorded in the urethane anaesthetised rats of the bladder model; details: for mean BP, change in percent from base value (Δ %) / mean BP Post (30-60 min), mean: group mean; for mean arterial blood pressure decreased by: 10 mg/kg i.d., decrease
# Protocol: The body temperature was maintained at 37° C. by means of an heated small operating table and 2 red light heating lamps. The left carotid artery was prepared and a catheter for continuous blood pressure measurement was inserted and connected to a Statham pressure transducer (Model P23 Db) and connected with a computer-controlled physiological recorder (PMS PR 800, Mumed Systems Ltd London, GB).
# For intraduodenal drug administration a polyethylene catheter was inserted into the upper part of the duodenum, about 5 cm downwards from the pylorus and fixed with a purse-string suture. Bilateral ureters were ligated proximally to the bladder to prevent the bladder filling with urine. Urine of the kidneys was drained onto cotton swabs within the abdomen. The urinary bladder was catheterised via the urethra by use of PE 50 polyethylene tubing filled with physiological saline and secured in place by a ligature at the lower part of the urethra. Using a “T”-connector, the bladder catheter was connected to a Statham pressure transducer (Model P23 Db) connected with the physiological recorder (PMS PR 800) to measure intravesicular pressure and to a Infusion pump (TSE, FRG). Continuous recordings of intravesicular pressure and arterial blood pressure were captured onto a 4 channel Linearcorder WR3310 (Western Graphtec, Inc., USA). The experiment was started infusing (0.05 ml/min) the bladder with warmed saline (37-38° C.) to evoke rhythmic bladder contractions by means an infusion pump up to a maximal volume of 1.0 ml. The infusion is stopped after reaching the final volume or with the start of rhythmic bladder contractions.
# [3] = test system: Randall-Selitto test in rats; details: p.o.; cited from earlier work
# [4] = test system: volume-induced rhythmic urinary bladder contractions; assay: volume-induced rhythmic urinary bladder contractions in urethane anaesthetised rats (rat model of overactive bladder); format: in vivo, Sprague Dawley rat; details: for amplitude, change in percent from base value (Δ %) / frequency, change in percent from base value (Δ %) / frequency Post (20-60 min), mean / amplitude Post (30-60 min), mean: group mean; for presence/absence of bladder contractions (block grade), individual animal: 55 min period, Table 3; for duration of block, individual animal / number of episodes of block per animal / decrease in frequency, individual animal / increase in frequency, individual animal: individual animals; for mean voiding frequency decreased by: decrease; for mean pressure peaks of the amplitude diminished/reduced by: reduction
# Excerpt: In the search for new drugs compounds are of interest which affect the central nervous system circuits involved in micturation as well as the peripheral nerves resulting in a decrease in the frequency of the voiding reflex without any effect on bladder contractility. […] The method utilises spontaneous, volume-induced contractions of the urinary bladder in anaesthetised rats and was developed and first described by Dray (J. Pharmacol. Meth. 13:157-165, 1985) to assess the central activity of substances with opioid properties on bladder function. As this model clearly mimics the interplay between smooth muscle function and neuronal control thereof, this model can be also used to predict drug effects in a different disease, i.e. irritable bowl syndrome (IBS).
# Aim of the study: To characterise the effects of the analgesic flupirtine maleate on the bladder function we used the model volume-induced contractions of urinary bladder in urethane anaesthetised rats. […] The compounds at the dose range 0.1-10 mg/kg were intraduodenally administered to anaesthetised rats. The intraduodenal route was chosen to mimic the oral route and to avoid the use of solvents necessary for intravenous administration.
# • Species: Sprague Dawley rat • Sex: Female • Body weight: 200-270 g • Breeder: Charles River, Sulzfeld • Food/Tap water: pellets, ssniff M/R15, ad libitum, Spezialdiäten GmbH, Soest/Wesffalen, FRG • Conditions in animal housing: Rats were kept conventionally in groups of 6 in macrolon cages No. 4. • Room temperature: 20-24° C. • Relative humidity: 40-70%, deviations from the maximum range caused during cleaning procedure are possible • Light/Dark rhythm: 12/12 h light/dark cycle, light on at 6:00 a.m.
# The food was withdrawn 16 hours before intraduodenal drug administration. Tap water was available ad libitum.
# Flupirtine maleate or oxybutynin hydrochloride were suspended in hydroxyethylcellulose (0.5%) in demineralised water. The substances were ground in a mortar with pistil. The suspensions were placed on a magnetic stirrer before and during dosing procedures. The substances were freshly prepared in the morning and applied intraduodenally in a volume of 0.4 ml/100 g body weight. Control rats received hydroxyethylcellulose (0.5%) i.d.
# The filling material, consisting of small globules, was ground in a mortar with pistil. Thereafter the grounded material was suspended in hydroxyethylcellulose (0.5%) in demineralised water. The suspensions were placed on a magnetic stirrer before and during dosing procedures for 10 minutes. The suspensions were freshly prepared in the morning and applied intraduodenally in a volume of 0.4 ml/100 g body weight to rats. Control rats received the same amount of hydroxyethylcellulose (0.5%) i.d.
# The continuous registration lasted 1 hr. […] The frequency was evaluated for 10 min before (baseline) and within the observation period in intervals of 10 minutes starting 5, 20, 35 and 50 min after drug administration. For intraduodenal dosing, drugs were administered via a duodenal polyethylene tube to animals in aqueous suspension of 0.5% hydroxyethylcellulose.
# [5] = test system: Haffner test in mice; details: p.o.; cited from earlier work
# [6] = 0.1 mg/kg i.d. single dose, listed as Flupirtine maleate
structure (smiles),measurement,setting,value
"CCOC(=O)Nc1ccc(NCc2ccc(F)cc2)nc1N [flupirtine maleate, [(2-Amino-6-(4-fluorophenyl)-methyl-amino-3-pyridinyl)-carbamicacid ethylester maleate]]",doses of first analgesic efficacy,[1],25-50 mg/kg p.o.
same,"mean BP, change in percent from base value (Δ %)",[2]; 0.1 mg/kg i.d. single dose,−4.7%
same,"mean BP, change in percent from base value (Δ %)",[2]; 1.0 mg/kg i.d. single dose,−6.9%
same,"mean BP, change in percent from base value (Δ %)",[2]; 3.0 mg/kg i.d. single dose,−12%
same,"mean BP Post (30-60 min), mean",[2]; 10 mg/kg i.d. single dose,79.3-83.3 mm Hg
same,mean arterial blood pressure decreased by,[2],11%
same,"ED50, Randall-Selitto test",[3],39 mg/kg p.o.
same,block X/n (animals with blockade of bladder contraction),[4]; 0.1 mg/kg i.d. single dose,2/3
same,"block, blockade duration (group, min-max)",[4]; 0.1 mg/kg i.d. single dose,4 to 8 min
same,"amplitude, change in percent from base value (Δ %)",[4]; 0.1 mg/kg i.d. single dose,−9.0%
same,"frequency, change in percent from base value (Δ %)",[4]; 0.1 mg/kg i.d. single dose,+3.4%
same,"amplitude, change in percent from base value (Δ %)",[4]; [6],No effect
same,"frequency, change in percent from base value (Δ %)",[4]; [6],No effect
same,block X/n (animals with blockade of bladder contraction),[4]; [6],2 out of 3
same,"presence/absence of bladder contractions (block grade), individual animal",[4]; 0.1 mg/kg i.d.,no block; also recorded: (+) (+ or (+) = contractions abolished during 5-10 min time period)
same,"duration of block, individual animal",[4]; 0.1 mg/kg i.d.,≤ 4 min and ≤ 8 min
same,number of episodes of block per animal,[4]; 0.1 mg/kg i.d.,1
same,"duration of block, individual animal","[4]; 0.1 mg/kg i.d., listed as Flupirtine maleate",4 min and 8 min
same,block X/n (animals with blockade of bladder contraction),[4]; 1.0 mg/kg i.d. single dose,2 out of 3 and 2/3
same,"block, blockade duration (group, min-max)",[4]; 1.0 mg/kg i.d. single dose,4 to 18 min
same,"frequency Post (20-60 min), mean",[4]; 1.0 mg/kg i.d. single dose,7.0-7.0 n/10 min
same,"frequency, change in percent from base value (Δ %)",[4]; 1.0 mg/kg i.d. single dose,−8.7%
same,"presence/absence of bladder contractions (block grade), individual animal",[4]; 1.0 mg/kg i.d.,no block; also recorded: + (+ or (+) = contractions abolished during 5-10 min time period); also recorded: (+) (+ or (+) = contractions abolished during 5-10 min time period)
same,"decrease in frequency, individual animal",[4]; 1.0 mg/kg i.d.,17% and 23% and without influence and frequency by 17% and frequency by 23%
same,"duration of block, individual animal",[4]; 1.0 mg/kg i.d.,4 to 5 min and 16 min
same,number of episodes of block per animal,[4]; 1.0 mg/kg i.d.,1 and 2
same,block X/n (animals with blockade of bladder contraction),[4]; 3.0 mg/kg i.d. single dose,all three and 3/3
same,"block, blockade duration (group, min-max)",[4]; 3.0 mg/kg i.d. single dose,5 to 14 min
same,"amplitude Post (30-60 min), mean",[4]; 3.0 mg/kg i.d. single dose,26.3-26.3 mm Hg
same,"frequency, change in percent from base value (Δ %)",[4]; 3.0 mg/kg i.d. single dose,−40%
same,"presence/absence of bladder contractions (block grade), individual animal",[4]; 3.0 mg/kg i.d.,++ (++ = contractions abolished during 10-30 min time period); also recorded: (+) (+ or (+) = contractions abolished during 5-10 min time period); also recorded: + (+ or (+) = contractions abolished during 5-10 min time period)
same,mean voiding frequency decreased by,[4]; 3 mg/kg i.d.,40%
same,"decrease in frequency, individual animal",[4]; 3.0 mg/kg i.d.,frequency by 29%; also recorded: by 50%; also recorded: frequency by 41%
same,"duration of block, individual animal",[4]; 3.0 mg/kg i.d.,"14 min and block, 6 min block, starting and ≤ 5 min and 8 min"
same,animals with voiding contractions abolished over the whole observation period,[4]; 10 mg/kg i.d.,1/3
same,block X/n (animals with blockade of bladder contraction),[4]; 10 mg/kg i.d. single dose,3/3
same,"block, blockade duration (group, min-max)",[4]; 10 mg/kg i.d. single dose,26 to 56 min
same,"amplitude, change in percent from base value (Δ %)",[4]; 10 mg/kg i.d. single dose,−26%
same,"frequency, change in percent from base value (Δ %)",[4]; 10 mg/kg i.d. single dose,−57%
same,"presence/absence of bladder contractions (block grade), individual animal",[4]; 10 mg/kg i.d.,++ (++ = contractions abolished during 10-30 min time period); also recorded: +++ (+++ = contractions abolished during 30-60 min time period)
same,mean voiding frequency decreased by,[4]; 10 mg/kg i.d.,57%
same,"decrease in frequency, individual animal",[4]; 10 mg/kg i.d.,frequency by 68%; also recorded: in frequency by 87%; also recorded: block decrease in frequency by 57%
same,"duration of block, individual animal",[4]; 10 mg/kg i.d.,26 min and 29 min and 55 min and 39 min
same,mean pressure peaks of the amplitude diminished/reduced by,[4]; 10 mg/kg i.d.,26%
same,doses with therapeutic effect in the model volume-induced contractions in urinary bladder,"[4]; rat, in vivo",1-3 mg/kg p.o.
same,"ED50, analgesic effect in the Haffner test",[5],28 mg/kg p.o.
"CCN(CC)CC#CCOC(=O)C(O)(c1ccccc1)C1CCCCC1 (stereo not drawn) [oxybutynin hydrochloride, (α-Phenylcyclohexaneglycolicacid 4-[diethylamino]-2-butynyl ester hydrochloride]","mean BP, change in percent from base value (Δ %)",[2]; 0.1 mg/kg i.d. single dose,−5%
same,"mean BP Post (30-60 min), mean",[2]; 1.0 mg/kg i.d. single dose,80.0-85.0 mm Hg
same,"mean BP, change in percent from base value (Δ %)",[2]; 1.0 mg/kg i.d. single dose,−15%
same,"mean BP, change in percent from base value (Δ %)",[2]; 10 mg/kg i.d. single dose,−24%
same,mean arterial blood pressure decreased by,[2],24%
same,block X/n (animals with blockade of bladder contraction),[4]; 0.1 mg/kg i.d. single dose,3/3
same,"block, blockade duration (group, min-max)",[4]; 0.1 mg/kg i.d. single dose,4 to 6 min
same,"amplitude Post (30-60 min), mean",[4]; 0.1 mg/kg i.d. single dose,32.0-32.0 mm Hg
same,"amplitude, change in percent from base value (Δ %)",[4]; 0.1 mg/kg i.d. single dose,−13%
same,"frequency Post (20-60 min), mean",[4]; 0.1 mg/kg i.d. single dose,6.3-7.3 n/10 min
same,"frequency, change in percent from base value (Δ %)",[4]; 0.1 mg/kg i.d. single dose,−12%
same,"presence/absence of bladder contractions (block grade), individual animal",[4]; 0.1 mg/kg i.d.,(+) (+ or (+) = contractions abolished during 5-10 min time period)
same,"decrease in frequency, individual animal","[4]; 0.1 mg/kg i.d., hydrochloride","decrease in frequency by 25%,; also recorded: frequency by 50%"
same,"duration of block, individual animal","[4]; 0.1 mg/kg i.d., hydrochloride","≤ 6 min and 5 min and max. 4 min, initial increase,"
same,"increase in frequency, individual animal","[4]; 0.1 mg/kg i.d., hydrochloride",frequency by 17%; also recorded: by 9% during 5-15th min
same,number of episodes of block per animal,"[4]; 0.1 mg/kg i.d., hydrochloride",4 (2×) and 1
same,number of episodes of block per animal,"[4]; 0.1 mg/kg i.d., listed as Oxybutynin hydrochloride, hydrochloride",1-4
same,mean pressure peaks of the amplitude diminished/reduced by,[4]; 0.1 mg/kg i.d.,13%
same,block X/n (animals with blockade of bladder contraction),[4]; 1.0 mg/kg i.d. single dose,3/3
same,"amplitude, change in percent from base value (Δ %)",[4]; 1.0 mg/kg i.d. single dose,−20%
same,"frequency, change in percent from base value (Δ %)",[4]; 1.0 mg/kg i.d. single dose,−68%
same,"amplitude Post (30-60 min), mean","[4]; 1.0 mg/kg i.d. single dose, hydrochloride",3/3 bl
same,"presence/absence of bladder contractions (block grade), individual animal","[4]; 1.0 mg/kg i.d., hydrochloride",+++ from 3 to 11th and 30 to (+++ = contractions abolished during 30-60 min time period); also recorded: ++ (++ = contractions abolished during 10-30 min time period)
same,mean voiding frequency decreased by,[4]; 1 mg/kg i.d.,68%
same,"decrease in frequency, individual animal","[4]; 1.0 mg/kg i.d., hydrochloride",contractions by 100%; also recorded: frequency by 62%; also recorded: by 80%
same,"duration of block, individual animal","[4]; 1.0 mg/kg i.d., hydrochloride",9 min and 30 min and 7 to 16 min and 4 to 11 min
same,number of episodes of block per animal,"[4]; 1.0 mg/kg i.d., hydrochloride",3-6 and 3 and 5
same,mean pressure peaks of the amplitude diminished/reduced by,[4]; 1 mg/kg i.d.,20%
same,block X/n (animals with blockade of bladder contraction),[4]; 10 mg/kg i.d. single dose,3/3
same,"amplitude, change in percent from base value (Δ %)",[4]; 10 mg/kg i.d. single dose,−38%
same,"frequency, change in percent from base value (Δ %)",[4]; 10 mg/kg i.d. single dose,+22%
same,"block, blockade duration (group, min-max)","[4]; 10 mg/kg i.d. single dose, hydrochloride",5 to 30 min
same,"block, blockade duration (group, min-max)","[4]; 10 mg/kg i.d. single dose, listed as Oxybutynin hydrochloride, hydrochloride",4 to 30 min
same,"presence/absence of bladder contractions (block grade), individual animal","[4]; 10 mg/kg i.d., hydrochloride",+ (+ or (+) = contractions abolished during 5-10 min time period); also recorded: ++ (++ = contractions abolished during 10-30 min time period)
same,mean frequency averaged over all animals increased by,"[4]; 10 mg/kg i.d., increase",22%
same,"duration of block, individual animal","[4]; 10 mg/kg i.d., hydrochloride",4 min (2×) and 30 min
same,"increase in frequency, individual animal","[4]; 10 mg/kg i.d., hydrochloride",increase in frequency by 14%; also recorded: in frequency by 28%; also recorded: increase in frequency by 22%
same,number of episodes of block per animal,"[4]; 10 mg/kg i.d., hydrochloride",2 and 1 (2×)
same,mean pressure peaks of the amplitude diminished/reduced by,[4]; 10 mg/kg i.d.,38%
same,"reduction in the amplitude, of the basal value","[4]; dose range 0.1-10 mg/kg i.d., generally",no more than 60%
